Test results: US5654318A, “Bicyclic amine derivatives” (Daiichi Pharmaceutical Co., Ltd., priority 1992, dated 1997)
Converted amounts (≈) assume the structure as drawn.

How the values were obtained:
[1] = pH 7.4
Str. pyogenes, G-36 = test: Antibacterial activity (MIC), Str. pyogenes, G-36; type: cell-based; conditions: Streptococcus pyogenes, G36
Experimental: (§1) The present invention will now be illustrated by way of Formulation Examples, Reference Examples, and Examples, but the present invention should not be construed as being limited thereto. All the percents are by weight unless otherwise indicated. The antibacterial activity assays were performed by the method specified by Japan Society of Chemotherapy (Chemotherapy 29(1), 76 (1981), and the results are summarized in Table 1 in terms of minimum inhibitory concentration (MIC).

Pr. vulgaris, 08601 = test: Antibacterial activity (MIC), Pr. vulgaris, 08601; type: cell-based; conditions: Proteus vulgaris
Experimental: as §1

S. aureus, 209P = test: Antibacterial activity (MIC), S. aureus, 209P; type: cell-based; conditions: Staphylococcus aureus
Experimental: as §1

S. flexneli, 2A, 5503 = test: Antibacterial activity (MIC), S. flexneli, 2A, 5503; type: cell-based
Experimental: as §1

Ser. marcescens, 10100 = test: Antibacterial activity (MIC), Ser. marcescens, 10100; type: cell-based; conditions: Serratia marcescens
Experimental: as §1

E. coli NIHJ = test: Antibacterial activity (MIC), E. coli NIHJ; type: cell-based; conditions: Escherichia coli
Experimental: as §1

Ps. aeruginosa, 32121 = test: Antibacterial activity (MIC), Ps. aeruginosa, 32121; type: cell-based; conditions: Pseudomonas aeruginosa
Experimental: as §1

S. epidermidis, 56500 = test: Antibacterial activity (MIC), S. epidermidis, 56500; type: cell-based; conditions: Staphylococcus epidermidis
Experimental: as §1

Ps. aeruginosa, 32104 = test: Antibacterial activity (MIC), Ps. aeruginosa, 32104; type: cell-based; conditions: Pseudomonas aeruginosa
Experimental: as §1

[2] = tested on: Str. faecalis, ATCC 19433; test: Antibacterial activity (MIC), Str. faecalis, ATCC 19433; type: cell-based; conditions: Enterococcus faecalis, ATCC19433
Experimental: as §1

Pr. mirabiris, IFO-3849 = test: Antibacterial activity (MIC), Pr. mirabiris, IFO-3849; type: cell-based
Experimental: as §1

S. aureus, Smith = test: Antibacterial activity (MIC), S. aureus, Smith; type: cell-based; conditions: Staphylococcus aureus
Experimental: as §1

| Structure (SMILES) | Partition Coefficient p' [1] | MIC (Str. pyogenes, G-36) | MIC (Pr. vulgaris, 08601) | MIC (S. aureus, 209P) | MIC (S. flexneli, 2A, 5503) | MIC (Ser. marcescens, 10100) | MIC (E. coli NIHJ) | MIC (Ps. aeruginosa, 32121) | MIC (S. epidermidis, 56500) | MIC (Ps. aeruginosa, 32104) | MIC [2] | MIC (Pr. mirabiris, IFO-3849) | MIC (S. aureus, Smith) |
| --- | --- | --- | --- | --- | --- | --- | --- | --- | --- | --- | --- | --- | --- |
| O=C(O)c1cn([C@@H]2C[C@@H]2F)c2c(Cl)c(N3C[C@H]4NCCO[C@@H]4C3)c(F)cc2c1=O (mixture of isomers) [Ex. 7, (+)-8-Chloro-6-fluoro-1-[(1R,2S)-2-fluorocyclopropyl]-7-[trans-2-oxa-5,8-diazabicyclo[4.3.0]-nonan-8-yl]-1,4-dihydro-4-oxoquinoline-3-carboxylic acid] | 26.9 | – | – | – | – | – | – | – | – | – | – | – | – |
| O=C(O)c1cn([C@@H]2C[C@@H]2F)c2c(Cl)c(N3C[C@H]4NCCO[C@@H]4C3)c(F)cc2c1=O (mixture of isomers) [Ex. 8, (-)-8-Chloro-6-fluoro-1-[(1R,2S)-2-fluorocyclopropyl]-7-[trans-2-oxa-5,8-diazabicyclo[4.3.0]nonan-8-yl]-1,4-dihydro-4-oxoquinoline-3-carboxylic acid] | 24.8 | – | – | – | – | – | – | – | – | – | – | – | – |
| Nc1c(F)c(N2C[C@H]3NCCO[C@@H]3C2)c(F)c2c1c(=O)c(C(=O)O)cn2[C@@H]1C[C@@H]1F (mixture of isomers) [Ex. 9, 5-Amino-6,8-difluoro-1-[(1R,2S)-2-fluorocyclopropyl]-7-(trans-2-oxa-5,8-diazabicyclo[4.3.0]nonan-8-yl) -1,4-dihydro-4-oxoquinoline-3-carboxylic acid] | – | 0.2 µg/mL | 0.025 µg/mL | 0.013 µg/mL | 0.013 µg/mL | 0.1 µg/mL | 0.006 µg/mL | 0.05 µg/mL | 0.025 µg/mL | 0.2 µg/mL | 0.1 µg/mL | 0.05 µg/mL | 0.006 µg/mL |
| O=C(O)c1cn(C2CC2)c2c(Cl)c(N3C[C@H]4NCCO[C@@H]4C3)c(F)cc2c1=O (relative stereo) [Compound A, 8-chloro-1-cyclopropyl-6-fluoro-1,4-dihydro-7-(trans-2-oxa-5,8-diazabicyclo[4.3.0]nonan8-yl)-4-oxo-3-quinoline-3-carboxylic acid, reference compound] | 112 | – | – | – | – | – | – | – | – | – | – | – | – |
| O=C(O)c1cn(C2CC2)c2c(Cl)c(N3C[C@@H]4CCCN[C@@H]4C3)c(F)cc2c1=O [Bay y 3118, reference compound] | 35.8 | – | – | – | – | – | – | – | – | – | – | – | – |
| O=C(O)c1cn([C@@H]2C[C@@H]2F)c2c(Cl)c(N3C[C@@H]4CCCN[C@@H]4C3)c(F)cc2c1=O [Ex. 2, 8-Chloro-7-([S,S]-2,8-diazabicyclo[4.3.0]nonan-8-yl)-8-chloro-6-fluoro-1-[(1R,2S)-2-fluorocyclopropyl]-1,4-dihydro-4-oxoquinoline-3-carboxylic Acid] | 6.69 | 0.05 µg/mL (≈ 0.118 µM) | 0.013 µg/mL (≈ 0.0307 µM) | 0.013 µg/mL (≈ 0.0307 µM) | 0.006 µg/mL (≈ 0.0142 µM) | 0.025 µg/mL (≈ 0.059 µM) | ≤ 0.003 µg/mL | 0.05 µg/mL (≈ 0.118 µM) | 0.05 µg/mL (≈ 0.118 µM) | 0.05 µg/mL (≈ 0.118 µM) | 0.1 µg/mL (≈ 0.236 µM) | 0.025 µg/mL (≈ 0.059 µM) | 0.006 µg/mL (≈ 0.0142 µM) |
| Nc1c(F)c(N2C[C@@H]3CCCN[C@@H]3C2)c(F)c2c1c(=O)c(C(=O)O)cn2[C@@H]1C[C@@H]1F [Ex. 3, 5-Amino-7-[(S,S)-2,8-diazabicyclo[4.3.0]nonan-8-yl]-6,8-difluoro-1-[(1R,2S)-2-fluorocyclopropyl]-1,4-dihydro-4-oxoquinoline-3-carboxylic acid] | – | 0.1 µg/mL (≈ 0.237 µM) | 0.025 µg/mL (≈ 0.0592 µM) | 0.025 µg/mL (≈ 0.0592 µM) | 0.013 µg/mL (≈ 0.0308 µM) | 0.05 µg/mL (≈ 0.118 µM) | 0.006 µg/mL (≈ 0.0142 µM) | 0.05 µg/mL (≈ 0.118 µM) | 0.025 µg/mL (≈ 0.0592 µM) | 0.05 µg/mL (≈ 0.118 µM) | 0.1 µg/mL (≈ 0.237 µM) | 0.05 µg/mL (≈ 0.118 µM) | 0.006 µg/mL (≈ 0.0142 µM) |
| Cc1c(N2C[C@@H]3CCCN[C@@H]3C2)c(F)cc2c(=O)c(C(=O)O)cn([C@@H]3C[C@@H]3F)c12 [Ex. 4, 7-[(S,S)-2,8-diazabicyclo[4.3.0]nonan-8-yl]-6-fluoro-1-[(1R,2S)-2-fluorocyclopropyl]-8-methyl-1,4-dihydro-4-oxoquinoline-3-carboxylic acid] | 3.73 | 0.1 µg/mL (≈ 0.248 µM) | 0.025 µg/mL (≈ 0.062 µM) | 0.025 µg/mL (≈ 0.062 µM) | 0.025 µg/mL (≈ 0.062 µM) | 0.05 µg/mL (≈ 0.124 µM) | 0.013 µg/mL (≈ 0.0322 µM) | 0.05 µg/mL (≈ 0.124 µM) | 0.05 µg/mL (≈ 0.124 µM) | 0.1 µg/mL (≈ 0.248 µM) | 0.2 µg/mL (≈ 0.496 µM) | 0.05 µg/mL (≈ 0.124 µM) | 0.013 µg/mL (≈ 0.0322 µM) |
| O=C(O)c1cn([C@@H]2C[C@@H]2F)c2c(F)c(N3C[C@@H]4CCCN[C@@H]4C3)c(F)cc2c1=O [Ex. 5, 7-[(S,S)-2,8-diazabicyclo[4.3.0]nonan-8-yl]-6,8-difluoro-1-[(1R,2S)-2-fluorocyclopropyl]-1,4-dihydro-4-oxoquinoline-3-carboxylic acid] | 5.84 | 0.1 µg/mL (≈ 0.245 µM) | 0.013 µg/mL (≈ 0.0319 µM) | 0.025 µg/mL (≈ 0.0614 µM) | 0.013 µg/mL (≈ 0.0319 µM) | 0.05 µg/mL (≈ 0.123 µM) | 0.013 µg/mL (≈ 0.0319 µM) | 0.05 µg/mL (≈ 0.123 µM) | 0.1 µg/mL (≈ 0.245 µM) | 0.1 µg/mL (≈ 0.245 µM) | 0.2 µg/mL (≈ 0.491 µM) | 0.05 µg/mL (≈ 0.123 µM) | 0.013 µg/mL (≈ 0.0319 µM) |
| O=C(O)c1cn([C@@H]2C[C@@H]2F)c2c(Cl)c(N3CC4=C(CNC4)C3)c(F)cc2c1=O [Ex. 6, 8-Chloro-7-[3,7-diazabicyclo[3.3.0]oct-1(5)-ene-3-yl]-6-fluoro-1-[(1R,2S)-2-fluorocyclopropyl]-1,4-dihydro-4-oxoquinoline-3-carboxylic acid] | – | 0.1 µg/mL (≈ 0.245 µM) | 0.013 µg/mL (≈ 0.0319 µM) | 0.025 µg/mL (≈ 0.0613 µM) | 0.013 µg/mL (≈ 0.0319 µM) | 0.2 µg/mL (≈ 0.49 µM) | 0.025 µg/mL (≈ 0.0613 µM) | 0.1 µg/mL (≈ 0.245 µM) | 0.1 µg/mL (≈ 0.245 µM) | 0.2 µg/mL (≈ 0.49 µM) | 0.39 µg/mL (≈ 0.956 µM) | 0.05 µg/mL (≈ 0.123 µM) | 0.013 µg/mL (≈ 0.0319 µM) |
